# Entries after “also recorded” stand apart in the source; their conditions may differ.
# Key:
# [1] = test system: RMPI 8226 human myeloma cells; test: Proliferation of RMPI 8226 human myeloma cells (Coulter counter); format: cell-based; details: FIG. 1; treated 3-4 days
# Method: (§1) FIG. 1. TBEs inhibit proliferation of RMPI 8226 human myeloma cells and U937 human leukemia cells. Cells were treated with TBEs and triterpenoids for 3-4 days and counted by Coulter counter. […] CDDO is presently in clinical trial for treatment of acute myelogenous leukemia. TP-235 is the imidazolide derivative of CDDO.
# (§2) Cells were treated with triterpenoids and TBEs for 3-4 days and counted by Coulter counter. […] CDDO is presently in clinical trial for treatment of acute myelogenous leukemia. TP-235 is the imidazolide derivative of CDDO.
# [2] = test system: heme oxygenase-1; test: Induction of heme oxygenase-1 in liver of CD-1 mice after gavage; format: in vivo
# Method: FIG. 3. […] CD-1 mice (2 per group) were gavaged with TBEs or CDDO-Im in DMSO. After 6 h, livers were harvested and homogenized. Lysates were separated by SDS-PAGE, probed with HO-1 antibodies, and developed by ECL.
# FIG. 11. […] Male CD-1 mice (3 per group) were gavaged with 1 μmol TBEs, CDDO or CDDO-Im in DMSO. Six hours later, livers were harvested and homogenized. Lysates were separated by SDS-PAGE, probed with HO-1 antibodies, and developed by ECL.
# CD-1 mice (2 per group) were gavaged with TBEs or CDDO-Im in DMSO. After 6 h, livers were harvested and homogenized. Lysates were separated by SDS-PAGE, probed with HO-1 antibodies, and developed by ECL.
# [3] = test system: heme oxygenase-1; test: Induction of heme oxygenase-1 in U937 cells (Western blot); format: cell-based, human; details: FIG. 2; 0.1-1 μM, 7 hours
# Method: FIG. 2. […] Cells were incubated with TBEs and triterpenoids (0.1-1 μM) for 7 hours. Total cell lysates were analyzed by SDS-PAGE, probed with an HO-1 antibody, and developed by ECL. […] None of the other TBEs that were tested provided significant induction of heme oxygenase.
# Cells were incubated with triterpenoids or TBEs (0.1-1 μM) for 7 hours. Total cell lysates were analyzed by SDS-PAGE, probed with an HO-1 antibody, and developed by ECL. […] None of the other TBEs that were tested provided significant induction of heme oxygenase.
# [4] = test system: U937 cells; test: Apoptosis in U937 cells (Annexin V); format: cell-based, human; details: FIG. 8, 24 hours
# Method: FIG. 8. Induction of apoptosis in U937 cells by TBEs. Cells were treated with TBEs and triterpenoids for 24 hours.
# Cells were treated for 24 hours.
# [5] = test system: CD11b expression in U937 cells; test: CD11b expression in U937 cells (FACS); format: cell-based, human; details: FIG. 4; 10-100 nM, 4 days
# Method: FIG. 4. TBE-31 induces CD11b expression in U937 cells. Cells were incubated with CDDO-Im or TBE-31 (10-100 nM) for 4 days. CD11b expression was measured by FACS analysis. Induction of CD11b is a marker of leukemia cell differentiation.
# Cells were incubated with CDDO-Im or TBE-31 (10-100 nM) for 4 days. CD11b expression was measured by FACS analysis. Induction of CD11b is a marker of leukemia cell differentiation.
# [6] = test system: heme oxygenase-1; test: Induction of heme oxygenase-1 in stomach of CD-1 mice after gavage; format: in vivo; details: FIG. 12; male CD-1 mice, 1 μmol by gavage in DMSO, six hours
# Text: FIG. 12. […] Male CD-1 mice (3 per group) were gavaged with 1 μmol TBEs, CDDO or CDDO-Im in DMSO. Six hours later, stomachs were harvested and homogenized. Lysates were separated by SDS-PAGE, probed with HO-1 antibodies, and developed by ECL.
# [7] = test system: iNOS; test: Inhibition of iNOS induction in RAW cells stimulated with IFN-γ (Western blot); format: cell-based, mouse; details: FIG. 5; IFNg 10 ng/ml, 24 hours
# [8] = test system: NO production in RAW cells; test: Inhibition of NO production in RAW cells stimulated with interferon-γ; format: cell-based, mouse
# [9] = test system: HO-1; test: Induction of HO-1 in RAW cells (Western blot); format: cell-based, mouse; details: FIG. 9; 30-300 nM, 24 hours
# [10] = test system: A549 human lung cancer cells; test: Apoptosis in A549 human lung cancer cells; format: cell-based; details: FIG. 7; 24 h
# Method: FIG. 7. TBE-31 induces apoptosis in A549 human lung cancer cells. Cells were treated with TBE-31 for 24 h. A549 is a classic human lung cancer cell line.
# Cells were treated for 24 h. A549 is a classic human lung cancer cell line.
# [11] = test system: U937 human leukemia cells; test: Proliferation of U937 human leukemia cells (Coulter counter); format: cell-based; details: FIG. 1; treated 3-4 days
# Method: as §1, §2
# [12] = test system: aflatoxin-induced tumorigenesis; design: species or system F344 rats; details: rat, in vivo
# [13] = test system: Jurkat cells; test: Proliferation of Jurkat cells (Coulter counter); format: cell-based; details: FIG. 6; 3-4 days
# Method: FIG. 6. TBEs inhibit proliferation of Jurkat cells. Cells were treated with TBEs and triterpenoids for 3-4 days and counted by Coulter counter. […] Thus, it is to be expected that TBEs may have useful activities in regulation of lymphocyte, as well as macrophage, function.
# Cells were treated with TBEs for 3-4 days and counted by Coulter counter.
structure (smiles),measurement,setting,value
"C#CC12C=C(C#N)C(=O)C=C1C1(C)C=C(C#N)C(=O)C(C)(C)C1CC2 (racemic) [TBE-31, 10a-ethynyl-4b,8,8-trimethyl-3,7-dioxo-3,4b,7,8,8a,9,10,10a-octahydrophenanthrene-2,6-dicarbonitrile]",Inhibition of proliferation of RMPI 8226 human myeloma cells,[1],by far the most potent; also recorded: equivalent to that of CDDO itself (TP-151)
same,Induction of heme oxygenase-1 in liver in vivo,"[2]; FIG. 3, CD-1 mice, gavage in DMSO, livers after 6 h",orally active agent; also recorded: comparable to that found with CDDO-Imidazolide
same,Induction of heme oxygenase-1 in liver,"[2]; FIG. 11, male CD-1 mice, 1 μmol by gavage in DMSO, six hours",potent inducer of heme oxygenase-1 in liver
same,Induction of heme oxygenase-1 in U937 cells,[3],"potent inducer of heme oxygenase; also recorded: markedly more potent than TP-151 (CDDO), and almost as potent as TP-235"
same,Induction of apoptosis in U937 cells,[4],most active of the TBEs; also recorded: markedly more active than CDDO (TP-151)
same,Induction of CD11b expression in U937 cells,[5],strongly induces CD11b at 100 nM; also recorded: comparable to that of CDDO-Im at 10 and 30 nM; also recorded: more potent than CDDO-Im at 100 nM
same,Induction of heme oxygenase-1 in stomach,[6],induces heme oxygenase-1 in stomach
same,Suppression of induction of iNOS in RAW 264.7 cells,[7],"potent suppressor of induction of iNOS; also recorded: significantly more potent than CDDO, and almost as potent as CDDO-Imidazolide"
same,IC50,"[8]; Mus musculus, Table 5, C-8a functionalized TBE-9 analogs, stimulated with interferon-γ, read-out: IC50 (nM), NO production in RAW cells",1 nM
same,Potency for inhibition of NO production in RAW cells (in words),"[8]; RAW cells, interferon-γ",extremely potent at one nanomolar concentrations; also recorded: higher than CDDO and equal to TP-225
same,Induction of HO-1 in RAW cells,[9],higher inducer than CDDO-Im
same,Induction of apoptosis in A549 cells,[10],can induce both early and late apoptosis
same,Inhibition of proliferation of U937 human leukemia cells,[11],by far the most potent; also recorded: more potent than CDDO
same,Formation of preneoplastic (GST-P positive) foci in liver,[12],reduces the formation of preneoplastic foci
same,Inhibition of proliferation of Jurkat cells,[13],"extremely active, more so than CDDO (TP-151)"
